Test results taken from US8815585B2, “Automated method and apparatus for embryonic stem cell culture” (Cellular Dynamics International, Inc., priority 2007, dated 2014).
“Also recorded” adds a separate entry of the source.

What was measured:
HES cells [1] = assay: Survival of HES cells after trypsin treatment, individualized and seeded in TeSR medium; type: cell-based, human; conditions: 0.1% trypsin; seeding onto Matrigel coated plates in TeSR medium
Description: The inventors utilized the system described in Example 1 and developed procedures for passaging of HES cells that were based on simple liquid handling protocols. Recent innovations in splitting techniques allowed for efficient automation of this otherwise demanding manual procedure. Since HES cells require cell-cell contacts for survival in TeSR media, they needed to be seeded in clumps which required scraping of attached cells, a procedure which would be very hard to automate.
For automated passaging, the following procedure was developed: After retrieval of the mother plate from the incubator, the wash tool removes the spent media as described in aim 1. The 8-channel 200 μl pipetting tool MP200 is used to add […] of trypsin (0.1%). […] The cells are washed off the plate surface and mixed using the 8-channel MP200 tool by repetitive dispensing and aspiration. Cells are then dispensed to the daughter plates using the MP200 tool. The cells are then seeded 1 to 32 onto precoated Matrigel plates loaded from the stacker to the Biomek2000. […] The total surface area of the initially used Omnitray turned out to be too large for the throughput of the system at the stage of the next split once the inventors tested methods for passaging HES cells in aim 2. […]

HES cells [2] = assay: Seeding and colony formation of individualized HES cells in 96-well plates; type: cell-based, human
Description: For this purpose however the inventors plated 16,000 cells per well, which is a 5-fold higher seeding density, than in the regular propagation and maintenance of undifferentiated HES cells with the automated procedure.

HES cells [3] = conditions: Watanabe et al. Nat Biotech (2007); cited from earlier work

Compound	survival of HES cells after trypsin treatment (HES cells [1])	seeding of individualized HES cells in 96-well plates (HES cells [2]; 96-well plates)	colony formation of HES cells from individualized cells (HES cells [2]; TeSR1 media)	ability to maintain HES cell growth (HES cells [3])
Cc1cncc2cccc(S(=O)(=O)N3CCCNCC3C)c12 (stereo in doubt) [H-1152, (S)-(+)-2-Methyl-1-[(4-methyl-5-isoquinolinyl)sulfonyl]homopiperazine]	allow the survival of HES cells after trypsin treatment	allows for very efficient seeding of individualized HES cells in 96-well plates; also recorded: allows for very efficient seeding of individualized human ES cells in 96-well plates	actively increased colony formation	
O=S(=O)(c1cccc2cnccc12)N1CCNCC1 [HA-100]	allow the survival of HES cells after trypsin treatment			supports the ability of HA-100 to maintain HES cell growth
